# Data reported in ChEMBL document CHEMBL5727627, “Tetrahydropyrimidodiazepine and dihydropyridodiazepine compounds for treating pain and pain related conditions” (2020).
# Molecular target: Voltage-dependent calcium channel subunit alpha-2/delta-1 (Homo sapiens, UniProt P54289)
# Assay: Binding Assay: α2δ-1: Binding Assay to Human α2δ-1 Subunit of Cav2.2 Calcium Channel.Human α2δ-1 enriched membranes (2.5 μg) were incubated with 15 nM of radiolabeled [3H]-Gabapentin in assay buffer containing Hepes-KOH 10 mM, pH 7.4.NSB (non specific binding) was measured by adding 10 μM pregabalin. After 60 min incubation at 27° C., binding reaction was terminated by filtering through Multiscreen GF/C (Millipore) presoaked in 0.5% polyethyleneimine in Vacuum Manifold Station, followed by 3 washes with ice-cold filtration buffer containing 50 mM Tris-HCl, pH 7.4.Filter plates were dried at 60° C. for 1 hour and 30 μl of scintillation cocktail were added to each well before radioactivity reading.Readings were performed in a Trilux 1450 Microbeta radioactive counter (Perkin Elmer).
# Voltage-dependent calcium channel subunit alpha-2/delta-1, sequence (P54289 25-956 limits assumed): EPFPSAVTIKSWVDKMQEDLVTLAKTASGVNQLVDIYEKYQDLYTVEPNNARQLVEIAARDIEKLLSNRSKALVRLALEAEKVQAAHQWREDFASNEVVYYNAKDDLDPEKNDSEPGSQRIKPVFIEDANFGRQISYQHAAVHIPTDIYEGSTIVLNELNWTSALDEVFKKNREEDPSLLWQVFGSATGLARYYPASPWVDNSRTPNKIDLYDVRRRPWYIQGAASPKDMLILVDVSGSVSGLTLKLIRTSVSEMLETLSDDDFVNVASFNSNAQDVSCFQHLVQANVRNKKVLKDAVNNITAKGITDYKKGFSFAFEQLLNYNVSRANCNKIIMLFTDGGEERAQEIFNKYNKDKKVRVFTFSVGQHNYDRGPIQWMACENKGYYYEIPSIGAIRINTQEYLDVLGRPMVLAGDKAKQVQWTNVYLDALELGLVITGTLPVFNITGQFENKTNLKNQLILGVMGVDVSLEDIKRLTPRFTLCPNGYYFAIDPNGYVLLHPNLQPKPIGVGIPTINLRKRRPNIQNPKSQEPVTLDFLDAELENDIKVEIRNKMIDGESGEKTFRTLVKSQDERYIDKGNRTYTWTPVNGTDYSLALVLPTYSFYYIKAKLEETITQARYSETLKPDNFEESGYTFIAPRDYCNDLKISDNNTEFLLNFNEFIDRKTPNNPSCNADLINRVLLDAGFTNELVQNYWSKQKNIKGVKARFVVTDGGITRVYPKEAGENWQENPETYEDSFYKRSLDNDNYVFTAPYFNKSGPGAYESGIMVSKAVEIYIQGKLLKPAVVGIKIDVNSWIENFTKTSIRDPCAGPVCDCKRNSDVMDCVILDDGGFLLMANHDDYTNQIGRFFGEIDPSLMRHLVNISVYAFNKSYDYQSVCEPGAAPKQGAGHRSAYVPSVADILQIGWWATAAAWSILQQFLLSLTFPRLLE
# Voltage-dependent calcium channel subunit alpha-2/delta-1, sequence (P54289 957-1103 limits assumed): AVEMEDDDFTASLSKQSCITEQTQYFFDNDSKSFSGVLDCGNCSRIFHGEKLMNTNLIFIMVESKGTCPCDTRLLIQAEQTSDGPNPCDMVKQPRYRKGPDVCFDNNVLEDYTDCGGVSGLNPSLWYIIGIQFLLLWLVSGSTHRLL
row,Structure (SMILES),Ki [µM]
1,CSc1ncc2c(n1)N(C)CCN(c1cccc(-c3nnc(CN(C)C(=O)OC(C)(C)C)o3)c1)C2=O,> 3
2,CNCC[C@H](Oc1cc(F)ccc1CN1CCN(C)c2nc(OC)ncc2C1=O)c1cccs1,> 3
3,CSc1ncc2c(n1)N(C)CCN(c1cccc(OC(CCN(CCF)C(=O)OC(C)(C)C)c3cccs3)c1)C2=O (stereo not given),> 3

# Further lines, results first:
row,Ki [µM],Structure (SMILES)
1,> 3,CCNc1cc2c(cn1)C(=O)N(c1cccc(COC(CCN(C)C(=O)OC(C)(C)C)c3ccccc3)c1)CCN2C (stereo not given)
2,> 3,CCNc1cc2c(cn1)C(=O)N(c1cccc(OC(CCN(C)C(=O)OC(C)(C)C)c3ccccc3)c1)CCN2C (stereo not given)
